Results taken from patent US20160102073A1, “2-HYDROXYMETHYL-SUBSTITUTED OREXIN RECEPTOR ANTAGONISTS” (MERCK SHARP & DOHME CORP., priority 2013, published 2016).
pIC50: −log10 of the molar value.

Tests used:
[1] = biological target: T1, human orexin-2 receptor (hOX2R) (Homo sapiens, UniProt O43614); experiment: FLIPR Ca2+ Flux Assay, CHO cells expressing hOX2R; format: cell-based; settings: agonist 70 pM Ala-6,12 orexin-A
T1 construct: expressed in transfected cells; host or cells: Chinese hamster ovary (CHO) cells, grown under G418 selection
T1 sequence (O43614 1-444): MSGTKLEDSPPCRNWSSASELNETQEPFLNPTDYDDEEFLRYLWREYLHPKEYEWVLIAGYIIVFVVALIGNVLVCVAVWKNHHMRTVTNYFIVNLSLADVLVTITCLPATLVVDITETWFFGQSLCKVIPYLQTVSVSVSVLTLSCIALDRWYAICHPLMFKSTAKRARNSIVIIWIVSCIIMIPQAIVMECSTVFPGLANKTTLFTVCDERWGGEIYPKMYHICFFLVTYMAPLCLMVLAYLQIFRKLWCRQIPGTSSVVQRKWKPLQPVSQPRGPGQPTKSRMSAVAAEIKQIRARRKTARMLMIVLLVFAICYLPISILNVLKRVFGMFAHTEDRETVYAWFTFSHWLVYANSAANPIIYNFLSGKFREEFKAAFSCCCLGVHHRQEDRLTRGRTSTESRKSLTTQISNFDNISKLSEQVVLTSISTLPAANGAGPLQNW

[2] = biological target: T2, human orexin-1 receptor (hOX1R) (Homo sapiens, UniProt O43613); experiment: FLIPR Ca2+ Flux Assay, CHO cells expressing hOX1R; format: cell-based; settings: agonist 70 pM Ala-6,12 orexin-A
T2 construct: expressed in transfected cells; host or cells: Chinese hamster ovary (CHO) cells, grown under G418 selection
T2 sequence (O43613 1-425): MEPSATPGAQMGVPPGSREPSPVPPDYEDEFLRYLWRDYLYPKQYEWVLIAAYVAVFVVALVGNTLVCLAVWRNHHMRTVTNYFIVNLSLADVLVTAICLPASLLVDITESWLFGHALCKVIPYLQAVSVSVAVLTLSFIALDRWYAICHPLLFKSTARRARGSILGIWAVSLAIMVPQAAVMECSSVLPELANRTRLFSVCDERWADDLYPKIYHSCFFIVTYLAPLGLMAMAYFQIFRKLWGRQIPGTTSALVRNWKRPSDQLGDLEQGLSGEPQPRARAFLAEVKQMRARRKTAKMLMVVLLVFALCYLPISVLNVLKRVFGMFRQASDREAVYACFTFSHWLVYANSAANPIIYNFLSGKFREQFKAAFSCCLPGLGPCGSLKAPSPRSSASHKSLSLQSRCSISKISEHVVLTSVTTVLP

C[C@@H]1CC[C@@H](Oc2ncccc2C(C)(C)O)CN1C(=O)c1sccc1-c1ncccn1 [Example 24, 2-[2-({(3R,6R)-6-methyl-1-[(3-pyrimidin-2-yl-thiophen-2-yl)carbonyl]piperidin-3-yl}oxy)pyridin-3-yl] propan-2-ol]
pIC50 [1]: 7.46 | pIC50 [2]: 7.11

COc1ccnc(O[C@@H]2CC[C@@H](C)N(C(=O)c3ccccc3-n3nccn3)C2)c1C(C)(C)O [Example 27, 2-(4-Methoxy-2-{[(3R,6R)-6-methyl-1-{[2-(2H-1,2,3-triazol-2-yl)phenyl]carbonyl}piperidin-3-yl]oxy}pyridin-3-yl)propan-2-ol]
pIC50 [1]: 7.60 | pIC50 [2]: 6.40

C[C@@H]1CC[C@@H](Oc2ncccc2C(C)(C)O)CN1C(=O)c1cccc(F)c1-n1nccn1 [Example 3, 2-(2-{[(3R,6R)-1-{[3-fluoro-2-(2H-1,2,3-triazol-2-yl)phenyl]carbonyl}-6-methylpiperidin-3-yl]oxy}pyridin-3-yl)propan-2-ol]
pIC50 [1]: 7.46 | pIC50 [2]: 6.72

C[C@H](O)c1cccnc1O[C@@H]1CC[C@@H](C)N(C(=O)c2ccccc2-n2nccn2)C1 [Example 30, (1S)-1-(2-{[(3R,6R)-6-Methyl-1-{[2-(2H-1,2,3-triazol-2-yl)phenyl]carbonyl}piperidin-3-yl]oxy}pyridin-3-yl)ethanol]
pIC50 [1]: 7.43 | pIC50 [2]: 7.12

Cc1ccc(C(C)(C)O)c(O[C@@H]2CC[C@@H](C)N(C(=O)c3ccccc3-n3nccn3)C2)n1 [Example 25, 2-(6-Methyl-2-{[(3R,6R)-6-methyl-1-{[2-(2H-1,2,3-triazol-2-yl)phenyl]carbonyl}piperidin-3-yl]oxy}pyridin-3-yl)propan-2-ol]
pIC50 [1]: 7.11 | pIC50 [2]: 7.26

C[C@@H]1CC[C@@H](Oc2ncccc2C(C)(C)O)CN1C(=O)c1cc(C#N)ccc1-n1nccn1 [Example 7, 3-{[(2R,5R)-5-{[3-(1-hydroxy-1-methylethyl)pyridin-2-yl]oxy}-2-methylpiperidin-1-yl]carbonyl}-4-(2H-1,2,3-triazol-2-yl)benzonitrile]
pIC50 [1]: 7.06 | pIC50 [2]: 6.38

C[C@@H]1CC[C@@H](Oc2ncccc2C(C)(C)O)CN1C(=O)c1ccsc1-n1nccn1 [Example 18, 2-(2-{[(3R,6R)-6-methyl-1-{[2-(2H-1,2,3-triazol-2-yl)thiophen-3-yl]carbonyl}piperidin-3-yl]oxy}pyridin-3-yl)propan-2-ol]
pIC50 [1]: 8.05 | pIC50 [2]: 7.74
